In patent US7226761B2, “Manufacture of five-carbon sugars and sugar alcohols” (Danisco Sweeteners Oy, priority 1992, dated 2007):

Key:
[1] = tested on: TKL1 deficient strain H1764; assay: Growth of TKL1 deficient strain on galactose plates containing D-xylulose; assay type: cell-based, Saccharomyces cerevisiae; conditions: 2% galactose plates
Experimental: The genomic library of Z. rouxii was transformed into the TKL1 deficient strain of Saccharomyces cerevisiae (H1764, see example 12) and 10,000 independent clones were obtained. We have observed that the TKL1 deficient strain H1764 is unable to grow on 2% galactose plates containing 0.3% or higher concentrations of D-xylulose (probably due to toxic concentrations of 5-carbon sugar phosphates accumulating). The independent clones were plated with 0.5% D-xylulose (synthetic complete medium with 2% galactose, 0.5% xylulose and 3% xylose lacking leucine for selection of the library plasmid) and screened for complementation of growth on these plates.

strains H1915 and H1916 = conditions: approximately 0.5 mM H2O2, 1.5 h; both strains
Experimental: Strains H1915 and H1916 were cultivated to logarithmic growth phase. The cells were collected and suspended into synthetic complete medium lacking histidine and uracil to an average density of OD600 20. Glucose was added to a final concentration of 20 g/l and a sample was taken immediately. The cells were incubated in a 30° C. shaker (250 rpm) for 2.5 h and the first sample was taken. Then H2O2 was added to a concentration of approximately 0.5 mM and incubation continued for an additional 1.5 h, when the second sample was taken. The OD600 was measured, cells were removed by centrifugation, and the growth medium samples were analyzed by HPLC (Waters device, Aminex HPX-87H Ion Exclusion Column, see example 17).

SMILES | D-xylulose concentration at which the strain is unable to grow [1] | increase of total polyol and pentose production (strains H1915 and H1916)
O=C(CO)[C@@H](O)[C@H](O)CO [D-xylulose] | ≥ 0.3% | 
OO [hydrogen peroxide] |  | 2 fold
